Assay results reported in patent US9388123B2, “LSD1-selective inhibitor having lysine structure” (KYOTO UNIVERSITY, priority 2012, dated 2016).
Counter-ions that a name gives are not always drawn.

What was measured:
[1] = target: T1, monoamine oxidase A (MAO-A) (Homo sapiens, UniProt P21397); test: Monoamine oxidase inhibition test (MAO-Glo assay kit); assay type: biochemical; settings: room temperature, 1 hour
T1 construct: purchased Sigma-Aldrich
T1 sequence (P21397 1-527): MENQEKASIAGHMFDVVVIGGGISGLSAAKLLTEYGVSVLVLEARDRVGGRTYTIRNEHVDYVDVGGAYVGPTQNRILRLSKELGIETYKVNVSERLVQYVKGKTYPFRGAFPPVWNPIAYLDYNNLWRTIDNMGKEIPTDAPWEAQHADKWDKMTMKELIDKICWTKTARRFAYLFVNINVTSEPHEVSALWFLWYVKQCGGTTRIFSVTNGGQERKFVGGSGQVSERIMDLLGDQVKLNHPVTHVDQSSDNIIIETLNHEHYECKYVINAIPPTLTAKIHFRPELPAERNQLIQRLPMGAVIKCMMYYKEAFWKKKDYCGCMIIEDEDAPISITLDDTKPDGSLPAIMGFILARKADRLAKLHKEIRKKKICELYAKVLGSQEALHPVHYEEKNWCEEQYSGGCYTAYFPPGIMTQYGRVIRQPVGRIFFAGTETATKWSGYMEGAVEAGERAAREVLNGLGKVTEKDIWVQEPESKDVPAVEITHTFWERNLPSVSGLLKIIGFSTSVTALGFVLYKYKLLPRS
Experimental: To the reaction liquid was added 50 μL of a luciferin detection reagent, and the mixture was subjected to a reaction at room temperature for 20 minutes.

HEL = test: Leukemia cell growth inhibition evaluation (WST-8); assay type: cell-based; settings: Homo sapiens, day 3 (72-hour culture), read-out: Human leukemia cell line GI50 (μM) HEL
Source text: (§1) HL60, THP-1, K562, U937, KGla, HEL, and MDS-L were used as human leukemia cells. The cell lines are cell lines established from various subtypes such as acute myeloid leukemia, acute promyelocytic leukemia, acute monocytic leukemia, acute erythroid leukemia, and myelodysplastic syndromes, which progress to leukemia. Cells obtained by introducing leukemia fusion genes MLL/AF9, MLL/SEPT6, and MLL/ENL into the bone marrow of normal mice with a retrovirus so as to develop leukemia were used as murine leukemia cell lines.
(§2) This assay method involves, as a principle thereof, measuring an absorbance (a peak at from 450 nm to 490 nm) at the time of color development through a reaction of NADH, which is contained in the mitochondria of viable cells, and WST-8 to measure the amount of NADH. Specifically, the assay was performed by the following procedure.
(§3) The cells were plated at 50 μl, i.e., 5,000 cells per well in a 96-well microtiter plate. Next, a test compound dissolved in DMSO was mixed at various concentrations into the same medium, and 50 μl of each of the mixtures was added to each well. A medium was prepared so that the final concentration of the test compound was from 0 μM to 50 μM and so that the addition amount of DMSO was the same, and the cells were cultured in a CO2 incubator. On day 0 before the addition and on day 1, day 2, and day 3 after the addition, WST-8 reagent was added at 20 μl per well, and the cells were cultured for 1 hour in a CO2 incubator. After that, measurement was performed with ARVO X3 (manufactured by PerkinElmer).
(§4) Specifically, an absorbance at 450 nm was measured, an absorbance at 595 nm was measured in the same well, and the absorbance at 595 nm was subtracted from the absorbance at 450 nm to perform background correction for the well itself. Further, a well containing only a medium free of cells was subjected to the same measurement. A value in this case was also subtracted. Thus, the amount of viable cells was represented as a numerical value with correction of the influence of a medicament or a medium as well. Under a condition not containing the test compound (addition of only dimethyl sulfoxide), an exponential increase in number of viable cells on day 1, day 2, and day 3 in the stated order was confirmed.

HL60 = test: Leukemia cell growth inhibition evaluation (WST-8); assay type: cell-based; settings: Homo sapiens, HL-60; day 3 (72-hour culture); read-out: Human leukemia cell line GI50 (μM) HL60
Source text: as §1, §2, §3, §4

K562 = test: Leukemia cell growth inhibition evaluation (WST-8); assay type: cell-based; settings: Homo sapiens, day 3 (72-hour culture), read-out: Human leukemia cell line GI50 (μM) K562
Source text: as §1, §2, §3, §4

KG1a = test: Leukemia cell growth inhibition evaluation (WST-8); assay type: cell-based; settings: Homo sapiens, KG-1a; day 3 (72-hour culture); read-out: Human leukemia cell line GI50 (μM) KG1a
Source text: as §1, §2, §3, §4

M7 = test: Leukemia cell growth inhibition evaluation (WST-8); assay type: cell-based; settings: Homo sapiens; day 3 (72-hour culture); read-out: Human leukemia cell line GI50 (μM) M7
Source text: as §1, §2, §3, §4

MDS-L = test: Leukemia cell growth inhibition evaluation (WST-8); assay type: cell-based; settings: Homo sapiens; day 3 (72-hour culture); read-out: Human leukemia cell line GI50 (μM) MDS-L
Source text: as §1, §2, §3, §4

[2] = system: MLL/AF9 leukemia cell line; test: Leukemia cell growth inhibition evaluation (WST-8); assay type: cell-based; settings: Mus musculus, day 3 (72-hour culture), read-out: Mouse MLL-fusion leukemia cell line GI50 (μM) MLL/AF9
Source text: as §1, §2, §3, §4

[3] = system: MLL/SEPT6 leukemia cell line; test: Leukemia cell growth inhibition evaluation (WST-8); assay type: cell-based; settings: Mus musculus; day 3 (72-hour culture); read-out: Mouse MLL-fusion leukemia cell line GI50 (μM) MLL/SEPT6
Source text: as §1, §2, §3, §4

THP1 = test: Leukemia cell growth inhibition evaluation (WST-8); assay type: cell-based; settings: Homo sapiens, THP-1; day 3 (72-hour culture); read-out: Human leukemia cell line GI50 (μM) THP1
Source text: as §1, §2, §3, §4

U937 = test: Leukemia cell growth inhibition evaluation (WST-8); assay type: cell-based; settings: Homo sapiens, U-937; day 3 (72-hour culture); read-out: Human leukemia cell line GI50 (μM) U937
Source text: as §1, §2, §3, §4

| Structure (SMILES) | IC50 [1] | GI50 (HEL) | GI50 (HL60) | GI50 (K562) | GI50 (KG1a) | GI50 (M7) | GI50 (MDS-L) | GI50 [2] | GI50 [3] | GI50 (THP1) | GI50 (U937) |
| --- | --- | --- | --- | --- | --- | --- | --- | --- | --- | --- | --- |
| O=C(N[C@@H](CCCCNC1CC1c1ccccc1)C(=O)NCc1ccccc1)c1ccc(-c2ccccc2)cc1 (stereo partly drawn) [Example 8, 2-[N-(4-Phenylbenzenecarbonyl)]amino-6-(trans-2-phenylcyclopropan-1-amino)-N-benzylhexanamide Hydrochloride] | 86 µM | < 1.3 µM | 4 to 5 µM | 3.2 µM | ~6.3 µM | ~6 µM | < 1.3 µM | < 2 µM | 4 to 5 µM | 5 to 6 µM | 4.6 µM |
| O=C(N[C@@H](CCCCNC1CC1c1ccccc1)C(=O)NCc1cccc(C(F)(F)F)c1)c1ccc(-c2ccccc2)cc1 (stereo partly drawn) [Example 19, 2-[N-(4-Phenylbenzenecarbonyl)]amino-6-(trans-2-phenylcyclopropan-1-amino)-N-(3-trifluoromethylbenzyl)hexanamide Hydrochloride] | > 100 µM | ~5 µM | 2.5 to 5 µM |  | 5 to 10 µM |  | < 1.3 µM | < 1.25 µM | 2.5 to 5 µM | 5 to 10 µM | 10 to 20 µM |
